Measurements published in PubChem BioAssay (NCI).
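Where inhibition never reached the appropriate level, the endpoint shown equals the highest concentration tested. Otherwise, values were interpolated linearly from a five-concentration, 48-hour dose response in 96-well plates. TGI denotes the concentration required for complete inhibition of growth.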

Legend:
Assay in all cases: NCI tumour cell line growth inhibition, 48 h
SN12C renal = tested on: SN12C renal
U251 CNS = tested on: U251 CNS
SF-268 CNS = tested on: SF-268 CNS
PC-3 prostate = tested on: PC-3 prostate
MOLT-4 leukemia = tested on: MOLT-4 leukemia
COLO 205 colon = tested on: COLO 205 colon
CAKI-1 renal = tested on: CAKI-1 renal
MCF7 breast = tested on: MCF7 breast
NCI-H460 lung = tested on: NCI-H460 lung
NCI-H23 lung = tested on: NCI-H23 lung
SW-620 colon = tested on: SW-620 colon
SF-295 CNS = tested on: SF-295 CNS
A549 NSCLC = tested on: A549 NSCLC
UO-31 renal = tested on: UO-31 renal
SR leukemia = tested on: SR leukemia
CCRF-CEM leukemia = tested on: CCRF-CEM leukemia
HL-60(TB) leukemia = tested on: HL-60(TB) leukemia
HS 578T breast = tested on: HS 578T breast
TK-10 renal = tested on: TK-10 renal
MDA-MB-231 breast = tested on: MDA-MB-231 breast
K-562 leukemia = tested on: K-562 leukemia
RPMI-8226 leukemia = tested on: RPMI-8226 leukemia
LOX IMVI melanoma = tested on: LOX IMVI melanoma
T-47D breast = tested on: T-47D breast
HCT-116 colon = tested on: HCT-116 colon
MDA-N = tested on: MDA-N
HT29 colon = tested on: HT29 colon
DU-145 prostate = tested on: DU-145 prostate
SK-MEL-5 melanoma = tested on: SK-MEL-5 melanoma
ACHN renal = tested on: ACHN renal
NCI-H226 lung = tested on: NCI-H226 lung
M14 melanoma = tested on: M14 melanoma
NCI/ADR-RES ovarian = tested on: NCI/ADR-RES ovarian
HOP-62 NSCLC = tested on: HOP-62 NSCLC
RXF 393 renal = tested on: RXF 393 renal
SF-539 CNS = tested on: SF-539 CNS
BT-549 breast = tested on: BT-549 breast
SK-OV-3 ovarian = tested on: SK-OV-3 ovarian
SNB-75 CNS = tested on: SNB-75 CNS
NCI-H522 lung = tested on: NCI-H522 lung
SNB-19 CNS = tested on: SNB-19 CNS
HCT-15 colon = tested on: HCT-15 colon
UACC-257 melanoma = tested on: UACC-257 melanoma
SK-MEL-2 melanoma = tested on: SK-MEL-2 melanoma
HOP-92 NSCLC = tested on: HOP-92 NSCLC
HCC-2998 colon = tested on: HCC-2998 colon
OVCAR-8 ovarian = tested on: OVCAR-8 ovarian
KM12 colon = tested on: KM12 colon
EKVX NSCLC = tested on: EKVX NSCLC
OVCAR-4 ovarian = tested on: OVCAR-4 ovarian
UACC-62 melanoma = tested on: UACC-62 melanoma
A498 renal = tested on: A498 renal
OVCAR-3 ovarian = tested on: OVCAR-3 ovarian
OVCAR-5 ovarian = tested on: OVCAR-5 ovarian
MALME-3M melanoma = tested on: MALME-3M melanoma
IGROV1 ovarian = tested on: IGROV1 ovarian
SK-MEL-28 melanoma = tested on: SK-MEL-28 melanoma
786-0 renal = tested on: 786-0 renal
MDA-MB-435 = tested on: MDA-MB-435

CCCCCC(O)[C@H]1C(=O)C[C@@H](O[Si](C)(C)C(C)(C)C)[C@@H]1/C=C/CCOCc1ccccc1 (stereo partly drawn)
TGI (SN12C renal): 38.4 µM | TGI (U251 CNS): 29.6 µM | TGI (SF-268 CNS): 33.2 µM | TGI (PC-3 prostate): 30.9 µM | TGI (MOLT-4 leukemia): > 29.7 µM | TGI (COLO 205 colon): 41.5 µM | TGI (CAKI-1 renal): 29.9 µM | TGI (MCF7 breast): > 54.7 µM | TGI (NCI-H460 lung): 30.5 µM | TGI (NCI-H23 lung): 33.3 µM | TGI (SW-620 colon): 41.4 µM | TGI (SF-295 CNS): 20.3 µM | TGI (A549 NSCLC): > 60.3 µM | TGI (UO-31 renal): 27.5 µM | TGI (SR leukemia): > 62.9 µM | TGI (CCRF-CEM leukemia): > 100 µM | TGI (HL-60(TB) leukemia): > 100 µM | TGI (HS 578T breast): 26.4 µM | TGI (TK-10 renal): 28.5 µM | TGI (MDA-MB-231 breast): 61.8 µM | TGI (K-562 leukemia): > 59.4 µM | TGI (RPMI-8226 leukemia): > 44.8 µM | TGI (LOX IMVI melanoma): 43 µM | TGI (T-47D breast): 40.1 µM | TGI (HCT-116 colon): > 45.5 µM | TGI (MDA-N): > 63.9 µM | TGI (HT29 colon): 22.5 µM | TGI (DU-145 prostate): 46.4 µM | TGI (SK-MEL-5 melanoma): 37.9 µM | TGI (ACHN renal): 26.2 µM | TGI (NCI-H226 lung): 27.5 µM | TGI (M14 melanoma): 34.5 µM | TGI (NCI/ADR-RES ovarian): 29.3 µM | TGI (HOP-62 NSCLC): 34.1 µM | TGI (RXF 393 renal): 31.3 µM | TGI (SF-539 CNS): 29.5 µM | TGI (BT-549 breast): 21.3 µM | TGI (SK-OV-3 ovarian): 31.1 µM | TGI (SNB-75 CNS): 32.1 µM | TGI (NCI-H522 lung): 15 µM | TGI (SNB-19 CNS): 28.5 µM | TGI (HCT-15 colon): 27.4 µM | TGI (UACC-257 melanoma): 26.4 µM | TGI (SK-MEL-2 melanoma): 31.2 µM | TGI (HOP-92 NSCLC): 28.1 µM | TGI (HCC-2998 colon): 30.9 µM | TGI (OVCAR-8 ovarian): 28.4 µM | TGI (KM12 colon): 17.2 µM | TGI (EKVX NSCLC): 35.2 µM | TGI (OVCAR-4 ovarian): 34.1 µM | TGI (UACC-62 melanoma): 25.1 µM | TGI (A498 renal): 39.9 µM | TGI (OVCAR-3 ovarian): 28.1 µM | TGI (OVCAR-5 ovarian): 36.6 µM | TGI (MALME-3M melanoma): 28.8 µM | TGI (IGROV1 ovarian): 25.6 µM | TGI (SK-MEL-28 melanoma): 31 µM | TGI (786-0 renal): 26.1 µM | TGI (MDA-MB-435): 22.4 µM

O=C1CC(CC(O)C(O)C(O)CO)CC(=O)N1 (stereo not drawn)
TGI (SN12C renal): > 100 µM | TGI (U251 CNS): > 100 µM | TGI (SF-268 CNS): > 100 µM | TGI (PC-3 prostate): > 100 µM | TGI (MOLT-4 leukemia): > 100 µM | TGI (COLO 205 colon): > 100 µM | TGI (CAKI-1 renal): > 100 µM | TGI (MCF7 breast): > 100 µM | TGI (NCI-H460 lung): > 100 µM | TGI (NCI-H23 lung): > 100 µM | TGI (SW-620 colon): > 100 µM | TGI (SF-295 CNS): > 100 µM | TGI (A549 NSCLC): > 100 µM | TGI (UO-31 renal): > 100 µM | TGI (SR leukemia): > 100 µM | TGI (CCRF-CEM leukemia): > 100 µM | TGI (HL-60(TB) leukemia): > 100 µM | TGI (HS 578T breast): > 100 µM | TGI (MDA-MB-231 breast): > 100 µM | TGI (K-562 leukemia): > 100 µM | TGI (RPMI-8226 leukemia): > 100 µM | TGI (LOX IMVI melanoma): > 100 µM | TGI (T-47D breast): > 100 µM | TGI (HCT-116 colon): > 100 µM | TGI (MDA-N): > 100 µM | TGI (HT29 colon): > 100 µM | TGI (DU-145 prostate): > 100 µM | TGI (SK-MEL-5 melanoma): > 100 µM | TGI (ACHN renal): > 100 µM | TGI (NCI-H226 lung): > 100 µM | TGI (M14 melanoma): > 100 µM | TGI (NCI/ADR-RES ovarian): > 100 µM | TGI (HOP-62 NSCLC): > 100 µM | TGI (RXF 393 renal): > 100 µM | TGI (SF-539 CNS): > 100 µM | TGI (BT-549 breast): > 100 µM | TGI (SNB-75 CNS): > 100 µM | TGI (NCI-H522 lung): > 100 µM | TGI (HCT-15 colon): > 100 µM | TGI (UACC-257 melanoma): > 100 µM | TGI (HOP-92 NSCLC): > 100 µM | TGI (HCC-2998 colon): > 100 µM | TGI (OVCAR-8 ovarian): > 100 µM | TGI (KM12 colon): > 100 µM | TGI (EKVX NSCLC): > 100 µM | TGI (OVCAR-4 ovarian): > 100 µM | TGI (A498 renal): > 100 µM | TGI (OVCAR-3 ovarian): > 100 µM | TGI (OVCAR-5 ovarian): > 100 µM | TGI (MALME-3M melanoma): > 100 µM | TGI (IGROV1 ovarian): > 100 µM | TGI (SK-MEL-28 melanoma): > 100 µM | TGI (786-0 renal): > 100 µM | TGI (MDA-MB-435): > 100 µM
